Experimental data as given in ChEMBL document CHEMBL3603831, “Discovery of Potent 17β-Hydroxywithanolides for Castration-Resistant Prostate Cancer by High-Throughput Screening of a Natural Products Library for Androgen-Induced Gene Expression Inhibitors” (J Med Chem, 2015).
Activity calls are given as the source filed them. The calls are words filed in the database; no cut-off is given here.

What was measured:
PC-3 [1] = assay: Cytotoxicity against human PC3 cells assessed as inhibition of cell proliferation/survival after 72 hrs by resazurin dye reduction assay; format: functional, cell-based; conditions: PC-3, 72 h
SF-268 = assay: Cytotoxicity against human SF268 cells assessed as inhibition of cell proliferation/survival after 72 hrs by resazurin dye reduction assay; format: functional, cell-based; conditions: SF-268, 72 h
MCF7 = assay: Cytotoxicity against human MCF7 cells assessed as inhibition of cell proliferation/survival after 72 hrs by resazurin dye reduction assay; format: functional, cell-based; conditions: MCF7, 72 h
LNCaP [2] = assay: Cytotoxicity against human LNCAP cells assessed as inhibition of cell proliferation/survival after 72 hrs by resazurin dye reduction assay; format: functional, cell-based
NCI-H460 = assay: Cytotoxicity against human NCI-H460 cells assessed as inhibition of cell proliferation/survival after 72 hrs by resazurin dye reduction assay; format: functional, cell-based; conditions: NCI-H460, 72 h
HFF = assay: Cytotoxicity against HFF assessed as inhibition of cell proliferation/survival after 72 hrs by resazurin dye reduction assay; format: cell-based; conditions: Homo sapiens
PC-3 [3] = assay: Antitumor activity against human PC3 cells xenografted in SCID mouse assessed as tumor growth inhibition at 50 mg/kg, ip qd administered for 5 days followed by 2 days rest and again dose repetition up to 30 days measured after day 30 post dose relative to vehicle-treated control; format: functional; conditions: PC-3, ip, read-out: TGI
Androgen receptor [4] = molecular target: T1, Androgen receptor (Homo sapiens, UniProt P10275); assay: Inhibition of androgen receptor in human LNCAP cells assessed as inhibition of DHT-induced SPDEF gene expression by Array Plate assay; format: cell-based
T1 sequence (P10275 whole entry): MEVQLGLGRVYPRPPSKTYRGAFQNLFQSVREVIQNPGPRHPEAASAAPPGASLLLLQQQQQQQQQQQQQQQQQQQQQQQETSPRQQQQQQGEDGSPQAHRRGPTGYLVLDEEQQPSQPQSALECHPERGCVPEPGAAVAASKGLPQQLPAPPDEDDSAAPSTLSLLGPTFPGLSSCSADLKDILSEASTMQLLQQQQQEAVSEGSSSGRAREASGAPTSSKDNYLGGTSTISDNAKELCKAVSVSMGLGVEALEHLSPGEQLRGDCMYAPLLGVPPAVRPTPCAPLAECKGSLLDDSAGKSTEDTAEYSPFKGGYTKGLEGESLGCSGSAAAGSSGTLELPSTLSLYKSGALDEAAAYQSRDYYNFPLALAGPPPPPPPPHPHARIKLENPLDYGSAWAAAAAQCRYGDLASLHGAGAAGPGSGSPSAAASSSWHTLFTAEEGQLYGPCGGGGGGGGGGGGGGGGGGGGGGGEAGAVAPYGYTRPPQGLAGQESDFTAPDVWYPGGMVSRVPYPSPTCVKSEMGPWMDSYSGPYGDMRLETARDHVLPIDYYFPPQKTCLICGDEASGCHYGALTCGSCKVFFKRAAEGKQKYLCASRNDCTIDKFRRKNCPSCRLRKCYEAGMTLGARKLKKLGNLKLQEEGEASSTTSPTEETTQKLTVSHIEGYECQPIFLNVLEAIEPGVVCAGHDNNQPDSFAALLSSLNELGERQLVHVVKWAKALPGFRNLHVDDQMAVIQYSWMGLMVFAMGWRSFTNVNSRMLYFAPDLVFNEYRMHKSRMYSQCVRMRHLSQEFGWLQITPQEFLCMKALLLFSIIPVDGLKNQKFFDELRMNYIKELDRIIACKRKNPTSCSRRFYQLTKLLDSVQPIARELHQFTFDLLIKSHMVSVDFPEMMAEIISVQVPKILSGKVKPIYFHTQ

[5] = molecular target: T2, Androgen receptor (Homo sapiens) (UniProt P10275); assay: Competitive inhibition of androgen binding to androgen receptor (unknown origin) by invitrogen polar screen assay
T2 sequence (whole entry): T1 sequence (P10275 whole entry)

Androgen receptor [6] = molecular target: T1, Androgen receptor; assay: Inhibition of androgen receptor in human LNCAP cells assessed as inhibition of DHT-induced KLK2 gene expression by Array Plate assay; format: cell-based
[7] = Toxicity in SCID mouse assessed as change in body weight measured every 3 to 5 days up to 18 days; format: organism-based; conditions: in vivo
Androgen receptor [8] = molecular target: T1, Androgen receptor; assay: Inhibition of androgen receptor in human LNCAP cells assessed as inhibition of DHT-induced KLK3 gene expression by Array Plate assay; format: cell-based
Plasma [9] = assay: Drug uptake in SCID mouse plasma at 50 mg/kg administered through gastric gavage; format: ADME, organism-based; conditions: in vivo, po
PC-3 [10] = assay: Antitumor activity against human PC3 cells xenografted in SCID mouse assessed as tumor growth inhibition at 26 to 40 mg/kg, ip coadministered with taxotere for five times per week up to two weeks measured twice per week; format: functional, organism-based
LNCaP [11] = assay: Antitumor activity against human LNCAP cells xenografted in SCID mouse assessed as tumor growth inhibition at 15 to 25 mg/kg, sc coadministered with taxotere in trappsol for five times per week up to two weeks measured twice per week; format: functional, organism-based
Serum = assay: Drug uptake in SCID mouse serum at 25 mg/kg, sc administered in trappsol measured after 1 hr; format: ADME, organism-based; conditions: in vivo
[12] = Tmax in SCID mouse at 50 mg/kg, ip; format: ADME, organism-based; conditions: in vivo
PC-3 [13] = assay: Antitumor activity against human PC3 cells xenografted in ip dosed SCID mouse assessed as tumor growth inhibition for five times per week up to two weeks measured twice per week; format: functional, organism-based
[14] = Toxicity in sc dosed SCID mouse administered in trappsol once per day for 5 days followed by 2 days of rest and again dose repetition; format: organism-based; conditions: in vivo
LNCaP [15] = assay: Antitumor activity against human LNCAP cells xenografted in sc dosed SCID mouse assessed as tumor growth inhibition administered in trappsol for five times per week up to two weeks measured twice per week; format: functional, organism-based
Mus musculus [16] = assay: Toxicity in SCID mouse xenografted with human LNCAP cells assessed as mortality at 15 to 25 mg/kg, sc administered in trappsol for five times per week up to two weeks; format: organism-based; conditions: in vivo
Plasma [17] = assay: Drug uptake in SCID mouse plasma at 50 mg/kg, ip; format: ADME, organism-based; conditions: in vivo
Mus musculus [18] = assay: Toxicity in SCID mouse xenografted with human PC3 cells assessed as mortality at 26 to 40 mg/kg, ip for five times per week up to two weeks; format: organism-based, PC-3; conditions: in vivo
PC-3 [19] = assay: Antitumor activity against human PC3 cells xenografted in SCID mouse assessed as tumor growth inhibition at 12 mg/kg, iv administered for five times per week up to two weeks measured twice per week; format: functional, organism-based

Row | Compound | IC50 (PC-3 [1]) [nM] | IC50 (SF-268) [nM] | IC50 (MCF7) [nM] | IC50 (LNCaP [2]) [nM] | IC50 (NCI-H460) [nM] | IC50 (HFF) [nM] | IC50 (Androgen receptor [4]) [nM] | IC50 (Androgen receptor [6]) [nM] | IC50 (Androgen receptor [8]) [nM] | further results
1 | COc1cccc2c1C(=O)c1c(O)c3c(c(O)c1C2=O)C[C@@](O)(C(=O)CO)C[C@@H]3O[C@H]1C[C@H](N)[C@H](O)[C@H](C)O1 [DOXORUBICIN] | 250 | 450 | 320 | – | – | – | – | – | – | –
2 | CC(=O)OC[C@]12CC[C@H]3[C@@H](CC=C4CC=CC(=O)[C@@]43C)[C@]1(O)[C@@H](OC(C)=O)C[C@@]2(O)[C@@](C)(O)[C@H]1CC(CO)=C(C)C(=O)O1 | > 5000 | > 5000 | > 5000 | 3300 | > 5000 | – | – | – | – | –
3 | CC1=C(CO)C(=O)O[C@@H]([C@@H](C)[C@H]2CC[C@H]3[C@@H]4C[C@H]5O[C@]56[C@@H](O)C=CC(=O)[C@]6(C)[C@H]4CC[C@]23C)C1 [WITHAFERIN A] | 410 | < 400 | 570 | 870 | < 400 | > 6800 | – | – | – | –
4 | CC(=O)OC[C@]12CC[C@H]3[C@@H](CC=C4CC=CC(=O)[C@@]43C)[C@]1(O)CC[C@@]2(O)[C@@](C)(O)[C@H]1CC(C)=C(C)C(=O)O1 | 130 | 3400 | 1900 | 70 | 1200 | > 3100 | 770 | 580 | 750 | inhibition in vivo at 50 mg/kg (PC-3 [3]): 66%; inhibition [5]: inactive; MTD at 18 days [7]: 50 mg/kg
5 | CC(=O)OC[C@]12CC[C@H]3[C@@H](C[C@H]4O[C@]45CC=CC(=O)[C@]35C)[C@]1(O)CC[C@@]2(O)[C@@](C)(O)[C@H]1CC(C)=C(C)C(=O)O1 | 90 | 2600 | 210 | 20 | 800 | > 3100 | – | – | – | Drug uptake (Plasma [9]): Not Active; TGI (PC-3 [10]): Active; TGI (LNCaP [11]): Active; Drug uptake (Serum): Active; Tmax [12]: 15 min; TGI (PC-3 [13]): Dose-dependent effect; MTD [14]: 25 mg/kg; TGI (LNCaP [15]): Dose-dependent effect; Activity (Mus musculus [16]): Non-toxic; Drug uptake (Plasma [17]): Active; Activity (Mus musculus [18]): Non-toxic
6 | CC(=O)OC[C@]12CC[C@H]3[C@@H](CC=C4C=CCC(=O)[C@@]43C)[C@]1(O)[C@@H](OC(C)=O)C[C@@]2(O)[C@@](C)(O)[C@H]1CC(C)=C(C)C(=O)O1 | > 5000 | > 5000 | > 5000 | 2000 | > 5000 | > 5000 | 1200 | 620 | 1420 | –
7 | CC(=O)O[C@@]12CO[C@@H]1C[C@H](O)[C@@]1(C)C(=O)[C@H](O)C3=C(C)[C@@H](OC(=O)[C@H](O)[C@@H](NC(=O)OC(C)(C)C)c4ccccc4)C[C@@](O)([C@@H](OC(=O)c4ccccc4)[C@H]21)C3(C)C | – | – | – | – | – | – | – | – | – | TGI (PC-3 [19]): Active
8 | CC(=O)OC[C@]12CC[C@H]3[C@@H](C[C@@H]4O[C@@]45CC=CC(=O)[C@]35C)[C@]1(O)CC[C@@]2(O)[C@@](C)(O)[C@H]1CC(C)=C(C)C(=O)O1 | 1200 | > 5000 | 1200 | 320 | 2100 | > 12000 | – | – | – | –
9 | CC(=O)OC[C@]12CC[C@H]3[C@@H](CC=C4CC=CC(=O)[C@@]43C)[C@]1(O)[C@@H](OC(C)=O)C[C@@]2(O)[C@@](C)(O)[C@H]1CC(C)=C(C)C(=O)O1 | 2000 | > 5000 | > 5000 | 440 | 2000 | > 2800 | 2720 | 1790 | 3580 | –
10 | CC(=O)OC[C@]12CC[C@H]3[C@@H](CC=C4C=CCC(=O)[C@@]43C)[C@]1(O)CC[C@@]2(O)[C@@](C)(O)[C@H]1CC(C)=C(C)C(=O)O1 | 3100 | > 5000 | > 5000 | 1100 | 3900 | > 3100 | 3280 | 2400 | 3520 | –
